Entries after “also recorded” stand apart in the source; their conditions may differ.
Assays:
ZIKV Paraiba/2015 [1] = experiment: Growth kinetics inhibition assay (infectious viral progeny), Vero cells; assay type: cell-based, Zika virus
ZIKV PRVABC59 strain = experiment: Viral inhibition assay, post-treatment, new World strain, Vero cells; assay type: cell-based, Zika virus; conditions: for EC50 / MIC: Zika virus; for EC50: new World ZIKV PRVABC59, Vero cells, post-treatment, 48 h; for MIC: new World ZIKV PRVABC59, read-out: PRVABC59 MIC (maximum effective concentration)
ZIKV Paraiba/2015 [2] = experiment: Viral inhibition assay, post-infection treatment, Vero cells; assay type: cell-based, Zika virus; conditions: for EC50: 36 h, ZIKV Paraiba/2015, Vero cells, post-infection treatment; for MIC: read-out: Post-treatment MIC (maximum effective concentration)
Caspase 3 and 7 = experiment: Apoptosis assay (Caspase Glo 3/7) in ZIKV-infected Vero cells; conditions: 0, 0.1, 1, 10 EC50; 24, 48, 72 h post-treatment
ZIKV MR-766 strain = experiment: Viral inhibition assay, post-treatment, old World strain, Vero cells; assay type: cell-based, Zika virus; conditions: for inhibitor category based on SI-MTT and SI-XTT: ZIKV MR-766, Vero; for EC50 / MIC: Zika virus; for EC50: old World ZIKV MR-766, Vero cells, post-treatment; for MIC: old World ZIKV MR-766 strain, read-out: MR766 MIC (maximum effective concentration)
ZIKV Paraiba/2015 [3] = experiment: Viral inhibition assay, post-treatment, human A549 cells; assay type: cell-based, Zika virus; conditions: for inhibitor category based on SI-MTT and SI-XTT: Paraiba/2015, A549 cells; for MIC / EC50: Zika virus; for MIC: in Homo sapiens, read-out: A549 cells MIC (maximum effective concentration); for EC50: ZIKV Paraiba/2015, A549 cells, post-treatment, 36 h
[4] = MTT cell viability assay in Vero cells; assay type: cell-based, African green monkey; conditions: African green monkey, non-infected Vero cells, 36 h post-treatment
ZIKV Paraiba/2015 [5] = experiment: Viral inhibition assay, co-treatment, Vero cells; assay type: cell-based, Zika virus; conditions: for Co-treatment MIC (maximum effective concentration): Vero cells, ZIKV Paraiba/2015, co-treatment
[6] = XTT cell proliferation in A549 cells; assay type: cell-based, human; conditions: human, highest concentration used 50.00 µM, sentence also cites [17]
[7] = XTT cell proliferation assay in Vero cells; assay type: cell-based, African green monkey; conditions: African green monkey, non-infected Vero cells, 36 h post-treatment
[8] = MTT cell viability in A549 cells; assay type: cell-based, human; conditions: human, highest concentration used 50.00 µM, sentence also cites [17]
ZIKV Paraiba/2015 [9] = experiment: Viral inhibition assay, pre-treatment (prophylactic), Vero cells; assay type: cell-based, Zika virus; conditions: for MIC / EC50: Zika virus; for MIC: read-out: Pre-treatment MIC (maximum effective concentration); for EC50: ZIKV Paraiba/2015, Vero cells, pre-treatment 12 h before infection; for inhibitor category based on SI-MTT / inhibitor category based on SI-XTT: pre-treatment, Paraiba/2015, Vero
[10] = post-treatment, Paraiba/2015, Vero
[11] = co-treatment, Paraiba/2015, Vero

Compound | EC50 (ZIKV PRVABC59 strain) [µM] | MIC (ZIKV PRVABC59 strain) [µM] | EC50 (ZIKV Paraiba/2015 [2]; Zika virus, Vero) [µM] | MIC (ZIKV Paraiba/2015 [2]; Zika virus) [µM] | inhibitor category based on SI-MTT and SI-XTT (ZIKV Paraiba/2015 [2]; [10]) | inhibitor category based on SI-MTT and SI-XTT (ZIKV MR-766 strain) | EC50 (ZIKV MR-766 strain) [µM] | MIC (ZIKV MR-766 strain) [µM] | inhibitor category based on SI-MTT and SI-XTT (ZIKV Paraiba/2015 [3]) | MIC (ZIKV Paraiba/2015 [3]) [µM] | EC50 (ZIKV Paraiba/2015 [3]) [µM] | CC50 at 36 h ([4]; confluent monolayers) [µM] | Co-treatment MIC (maximum effective concentration) (ZIKV Paraiba/2015 [5]) [µM] | inhibitor category based on SI-MTT and SI-XTT (ZIKV Paraiba/2015 [5]; [11]) | CC50 [6] [µM] | CC50 [8] [µM] | MIC (ZIKV Paraiba/2015 [9]) [µM] | EC50 (ZIKV Paraiba/2015 [9]) [µM] | inhibitor category based on SI-MTT (ZIKV Paraiba/2015 [9]) | inhibitor category based on SI-XTT (ZIKV Paraiba/2015 [9]) | other results
O=C(O)C1=CC(=C(c2ccc(O)c(C(=O)O)c2)c2ccc(O)c(C(=O)O)c2)C=CC1=O [ATA, Aurintricarboxylic acid] | 4.74 | < 33.3 | 21 | > 100 | moderate to weak | weak | 8.08 | < 33.3 | weak | < 100 | 6.67 | > 1350 | < 33.30 | potent | > 50 | > 50 | > 100 | 9.86 | potent | moderate | effect on production of infectious viral progeny (viral titers) (ZIKV Paraiba/2015 [1]; 10 EC50): complete inhibition; inhibitor category based on SI-MTT (ZIKV PRVABC59 strain; ZIKV PRVABC59, Vero): moderate; inhibitor category based on SI-XTT (ZIKV PRVABC59 strain; ZIKV PRVABC59, Vero): weak; caspase 3/7 activation in ZIKV-infected cells (Caspase 3 and 7): dose-dependent effect; CC50 at 36 h ([7]; confluent monolayers): > 1350 µM
CC[C@H](CC#N)OC(=O)N[C@@H](C)c1cccc(NC(=O)Nc2ccc(-c3cnco3)c(OC)c2)c1 [AVN-944] | 0.38 | < 1.23 | 0.84 | < 11.1 | most potent; also recorded: potent | most potent; also recorded: potent | 0.33 | < 1.23 | Potent | < 0.41 | 0.05 | 273 | > 100.00 | moderate | > 50 | > 50 | < 100 | 11.1 | Potent | moderate | effect on production of infectious viral progeny (viral titers) (ZIKV Paraiba/2015 [1]; 0.1, 1, 10 EC50, all time points (24, 48, 72 h post-treatment), MOI 0.1): dose-dependent inhibitory effect; inhibitor category based on SI-MTT and SI-XTT (ZIKV PRVABC59 strain; ZIKV PRVABC59, Vero): potent; EC50 (ZIKV Paraiba/2015 [2]): 0.98 µM; CC50 at 36 h ([7]; confluent monolayers): > 1350 µM
CCCCCC[C@H]1C(=O)O[C@H](C)[C@H](NC(=O)c2cccc(NC=O)c2O)C(=O)O[C@@H](C)[C@@H]1OC(=O)CC(C)C [Antimycin A] | 7.32 | < 33.3 | 1.29 | < 100 | moderate to weak | most potent; also recorded: potent | 0.03 | < 33.3 | weak | < 11.1 | 1.71 |  | > 100.00 |  | > 50 | > 50 | < 100 | 8.95 | moderate | moderate | effect on production of infectious viral progeny (viral titers) (ZIKV Paraiba/2015 [1]; 72 h post-treatment): dose-dependent effect; inhibitor category based on SI-MTT and SI-XTT (ZIKV PRVABC59 strain; ZIKV PRVABC59, Vero): weak; inhibitor category based on SI-MTT (ZIKV Paraiba/2015 [2]; [10]): weak; inhibitor category based on SI-XTT (ZIKV Paraiba/2015 [2]; [10]): potent; CC50 at 36 h [4]: 51.3 µM; inhibitor category based on SI-MTT (ZIKV Paraiba/2015 [5]; [11]): moderate; inhibitor category based on SI-XTT (ZIKV Paraiba/2015 [5]; [11]): potent; CC50 at 36 h [7]: > 1350 µM
